Experimental findings from patent US7125849B2, “Peptide-based angiogenesis inhibitors and methods of use thereof” (The Scripps Research Institute, priority 2003, dated 2006) are described below.

Data set [1] has as its system HMEC-1 cells. Briefly: Endothelial cell migration by time lapse imaging. On the procedure:
Microscopy. To assay migration, HMEC-1 cells were treated with various concentrations of either PRO polypeptide or mutant peptide prior to plating. Cells were plated on coverslips coated with about 2 μg/ml of fibronectin (FN). Dishes containing coverslips were prepared as described by Kiosses et al., and maintained at a temperature of about 37° C., under an atmosphere containing about 5% carbon dioxide as described by Schwartz, J. Cell Biol., 1993, 120:1003–1010. The cells were viewed with a Nikon DiaPhot Microscope equipped with a SenSys cooled CCD video camera linked to a Silicon Graphics workstation running the Inovision ISEE software program. At the end of the experiment, images of each cell were outlined and the centroid (cell center) calculated. Displacement of the centroid was then used to determine movement of the cell over time. Statistical analysis was performed using Microsoft EXCEL statistics software. Approximately 50 cells were filmed and tracked per experiment, with at least 3 independent experiments for both the PRO and the mutant peptide. Results were expressed as means±standard error of the mean. The Students t-test was used to determine whether the observed differences were statistically significant (p=0.05).

Data set [2] concerns Human umbilical vein endothelial cells (HUVECs). Briefly: In vitro tube formation assay in 3-dimensional matrix. In kind it is cell-based. The conditions noted are these: about 48 hours. From the text:
Formation of Three-dimensional Collagen Gels. Collagen gels were formed by mixing ice-cold gelation solution (10× M199, H2O, 0.53 mol/L NaHCO3, 200 mmol/L L-glutamine, type I collagen, 0.1 mol/L NaOH; 100:27.7:50:10:750:62.5 by volume) with cells in 1×-basal medium at a concentration of about 3×10^6 cells/ml at a ratio of about 4 volumes of gelation solution to about 1 volume of cells by the method of Yang et al. Am. J. Pathol., 1999, 155:[…] (hereinafter “Yang et al.”). The gels were allowed to form by incubation in a CO2-free incubator at a temperature of about 37° C. for about 30–60 minutes. […]
Quantification of Tube Formation. […] The total length of each tube or the long axis of single cells or groups of adjacent cells was measured, and the raw data was imported into a Microsoft Excel spread sheet. The mean tube length was determined for each well, followed by determination of the mean data and SEM for each experimental group.
As an initial test of the PRO effect on endothelial cell behavior in 3-dimensional matrices, in vitro tube formation assays in matrigel were carried out. […] Tube formation was quantitated by determining the length of endothelial cell tubes.

Data set [3] concerns endothelial cells. As to the kind of experiment: Contractility on flexible silicone rubber substrates (wrinkle assay). In kind it is cell-based. The note with it: about 10 μM, FIG. 4. From the text: Contractility. To visualize cell contractility, flexible rubber substrates were generated as described by Bussolino et al., J. Biol. Chem., 1989, 264:18284–18287. Briefly, silicone rubber (polydimethylsiloxane), having a viscosity of about 10000 centistokes (Dow Corning Co.) was applied to the coverslip at the bottom of 35 mm tissue culture dishes and coated with a thin layer of gold-palladium using a Hummer VI sputter coater, which polymerized a thin layer of silicon rubber. The surface was additionally coated with about 2 μg/ml of fibronectin (FN). Treated and un-treated endothelial cells were plated on the rubber substrate and allowed to adhere. Cells that had wrinkled the substrate beneath were visualized for about 4 hours and then scored by time-lapse phase contrast microscopy. Following this period, the cells were treated with Cytochalasin D (about 1 μg/ml) (Molecular Probes) to release all wrinkles that were due to actin-dependent cell tension.
To examine effects on contractility, cells were plated on elastic substrata, as described above, that can be pulled into wrinkles by cell-generated forces.

Data set [4] has as its target T1, Nck (Homo sapiens, UniProt P16333).
T1 construct: endogenous in cells; host or cells: human endothelial cells (cell type for this assay not further specified)
As to the kind of experiment: Affinity chromatography of endothelial cell extracts on peptide-agarose, western blot with anti-Nck. The conditions noted are these: detergent extracts of human endothelial cells. In kind it is binding. As for the experimental part: Affinity Chromatography. PRO or control peptides containing an N-terminal cysteine were dissolved in about 1 ml of coupling buffer (50 mM tris pH 8.0, 5 mM EDTA) and about 0.5 ml at about 3 mg/ml peptide added to about 2 ml of activated thiol-Sepharose (Pharmacia). Samples were incubated at a temperature of about 4° C. overnight with 1% β-mercaptoethanol added to block unreacted sites. Beads were rinsed and stored at a temperature of about 4° C. Endothelial cell cultures in 15 cm dishes were extracted in about 1.0 ml of cold (about 4° C.), lysis buffer (20 mM pH 7.4 sodium phosphate, 100 mM NaCl, 1% Triton X-100, 10 mM NaF, 2 mM EDTA, 1 mM sodium orthovanadate, 1 mM PMSF, 10 μg/ml each of leupeptin and aprotinin). The extracts were centrifuged for about 10 minutes at top speed in a microfuge and the supernatants were then removed. A 0.5 ml sample of each extract was incubated with about 10 μl of packed beads for about 1 hour, with rotation at a temperature of about 4° C. The beads were rinsed with lysis buffer (about 4×0.5 ml) and dissolved in SDS sample buffer (about 0.04 ml). Samples were analyzed by SDS PAGE on 10% gels and immunoblotting with anti-NCK (Santa Cruz) and HRP-protein A as secondary, and then were developed and detected using enhanced chemiluminescence (ECL kit, Amersham). […]
For orientation: In western blotting, separated proteins are transferred to a membrane and probed.

The subject of data set [5] is chorioallantoic membrane (CAM) of chick embryos. As to the kind of experiment: Chick CAM in vivo angiogenesis assay (bFGF-induced). The note with it: bFGF filters, examined 3 days later, compared to untreated filters, FIG. 6. As for the experimental part: Chick Cam Assays. In vivo angiogenesis assays were performed essentially as previously described by Brooks, et al., Cell, 1994, 79:1157–1164, the relevant disclosures of which are incorporated herein by reference. Filter discs saturated with 1.0 ug/ml bFGF were placed on the chorioallantoic membranes (CAMs) of 10-day-old chicken embryos, immediately followed by daily topical addition of either a PRO inhibitory peptide (20 μgs) or a control peptide ([…]) in 20 μl of fibroblast growth medium (FGM). After 72 hours, the filter discs and associated CAM tissue were harvested and quantified. Angiogenesis was assessed as the number of visible blood vessel branch points within the defined area of the filter discs. At least 20 CAMs were used for each treatment.
New blood vessels invade the filter dishes within 2–5 days, and angiogenesis can be readily detected. Filters without any additions, with control or with the PRO compound of Example 1 were implanted and examined 3 days later.

No end group written: not given here.

As for “YGRKKRRQRRRGKPPAPPMRNTSTM [SEQ ID NO: 4]”, the “Migration rates over the time course (argues against toxicity)” value in data set [1] (FIG. 3B) is “essentially constant”. Also, in data set [2], the Cell number result is “nor was cell number greatly altered” and the “Morphology of individual cells” value is “not noticeably perturbed”.

Regarding “SEQ ID NO: 5: control peptide in which the first two prolines of SEQ ID NO: 4 were replaced by the amino acids A and G (YGRKKRRQRRRGKAGAPPMRNTSTM; fusion protein fragment)”, the “Endothelial cell migration rate” value in data set [1] (about 10 μM peptide, time lapse imaging, FIG. 3A) is reported as “no significant effect on migration”. In data set [3], the “Cell contractility (wrinkles of elastic substratum)” value is reported as “had no effect”. The “Binding of Nck from endothelial cell lysates” value in data set [4] is listed as “no detectable Nck was bound”. Moreover, in data set [5], the “Angiogenesis in CAM (vascular branch points)” value is “essentially no effect”.
